{"source": "paper PMC3726336", "about": "“Product inhibition of cellulases studied with ^14C-labeled cellulose substrates” (Biotechnology for Biofuels, 2013)", "key": {"AtCel7A": {"target": "AtCel7A (Acremonium thermophilum, UniProt A7WNT9)", "sequence (A7WNT9 entry or part of it)": "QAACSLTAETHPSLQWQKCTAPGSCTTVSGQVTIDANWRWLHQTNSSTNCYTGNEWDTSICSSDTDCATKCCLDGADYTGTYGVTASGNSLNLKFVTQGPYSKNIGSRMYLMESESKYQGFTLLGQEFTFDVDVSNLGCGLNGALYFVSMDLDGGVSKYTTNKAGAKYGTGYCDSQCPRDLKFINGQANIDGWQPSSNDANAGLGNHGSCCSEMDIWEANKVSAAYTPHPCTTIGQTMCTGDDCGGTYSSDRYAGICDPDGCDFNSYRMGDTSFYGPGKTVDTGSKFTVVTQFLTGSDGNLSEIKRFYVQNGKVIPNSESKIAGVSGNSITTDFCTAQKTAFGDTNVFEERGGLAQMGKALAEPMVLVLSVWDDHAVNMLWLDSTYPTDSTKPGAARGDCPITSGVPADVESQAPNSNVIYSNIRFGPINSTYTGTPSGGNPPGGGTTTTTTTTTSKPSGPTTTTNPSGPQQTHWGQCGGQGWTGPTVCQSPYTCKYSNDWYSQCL", "experiment": "Cellobiose inhibition of MUL hydrolysis by AtCel7A", "format": "biochemical", "conditions": "MUL substrate (5 μM)", "excerpt": "The cellobiose inhibition of GH7 CBHs is most often studied on low-Mw model substrates. However, it has been shown that the inhibition of CBHs acting on low-Mw substrates appears to be much stronger than that on cellulose substrates. The Ki values for cellobiose inhibition of GH7 CBHs measured on low-Mw substrates are in the micromolar range [44, 51, 52], whereas those measured on cellulose are in the low- to high-millimolar range [28, 31, 32]. […] Unfortunately, the inhibition of this enzyme on cellulose has not been studied. We also studied the cellobiose inhibition of GH7 CBHs acting on MUL. The initial rates of MUL hydrolysis measured in the presence and absence of added cellobiose were first analyzed according to Equation 1, and the IC50 values were found using Equation 2. […] The inhibition of MUL hydrolysis is attributable to the binding of cellobiose to the product sites (+1/+2) of TrCel7A [52]. […]\nFor the inhibition of enzyme acting on the low-Mw substrate, the initial rates of the hydrolysis of MUL in the presence and absence of added cellobiose were followed. […] Reactions were stopped by the addition of NH3 (final concentration 0.1 M), and the released 4-methylumbelliferone was quantified by fluorescence using excitation and emission wavelengths of 360 nm and 450 nm, respectively."}, "TrCel5A": {"target": "T1, TrCel5A (Trichoderma reesei, UniProt P07982)", "T1 construct": "TrCel7B, TrCel5A, and TrCel12A were purified from the culture filtrate of Tr QM 9414; made in house; host or cells: Trichoderma reesei QM 9414 culture filtrate (native producer)", "T1 sequence (P07982 22-418)": "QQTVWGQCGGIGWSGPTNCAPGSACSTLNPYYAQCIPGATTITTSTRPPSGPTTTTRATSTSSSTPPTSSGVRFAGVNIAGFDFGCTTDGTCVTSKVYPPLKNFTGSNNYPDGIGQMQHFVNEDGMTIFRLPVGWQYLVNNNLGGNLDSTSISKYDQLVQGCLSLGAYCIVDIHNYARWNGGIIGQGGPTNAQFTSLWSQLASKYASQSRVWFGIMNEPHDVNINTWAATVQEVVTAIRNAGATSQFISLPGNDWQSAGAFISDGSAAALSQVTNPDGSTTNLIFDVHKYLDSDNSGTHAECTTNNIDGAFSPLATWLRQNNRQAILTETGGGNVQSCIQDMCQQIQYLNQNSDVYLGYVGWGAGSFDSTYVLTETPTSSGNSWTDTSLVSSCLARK", "set-up": "method as in doi:10.1016/j.tca.2005.01.025", "conditions": "TrCel5A acting on cellohexaose; read-out: Ki value for cellobiose inhibition; cited from earlier work"}, "TrCel12A": {"system": "TrCel12A", "experiment": "Cellobiose effect on hydrolysis of 14C-amorphous cellulose by TrCel12A", "format": "biochemical, Trichoderma reesei", "conditions": "35°C", "excerpt": "EGs are a diverse group of enzymes present in all efficient cellulase systems. Their best recognized function is their synergism with CBHs. Depending on the conditions, the degree of synergistic effect may be more than 10-fold. Therefore, the inhibition of the EG component may result in a drastic decrease in the rate of the synergistic hydrolysis of cellulose. The main soluble product of the EG-catalyzed cellulose hydrolysis is cellobiose, but some glucose and higher-order oligosaccharides are also produced. Here, we studied the cellobiose inhibition of the EGs TrCel7B, TrCel5A and TrCel12A with ^14C-amorphous cellulose substrate. The enzyme concentrations and hydrolysis times were adjusted so that the linear region of the time course was studied. The time courses for the hydrolysis of ^14C-amorphous cellulose by TrCel7B in the presence and absence of added cellobiose are shown in Figure 9A. For the results with TrCel5A and TrCel12A, see Additional file 1: Figure S5. […] This figure is reasonably well in line with that measured for TrCel7B on amorphous cellulose using isothermal titration calorimetry. […]\nEGs were assessed on ^14C-amorphous cellulose. ^14C-amorphous cellulose (0.5 g l^-1) was incubated (with shaking at 700 rpm) with EG in 50 mM sodium acetate buffer, pH 5.0, containing BSA (0.1 g l^-1) in the presence and absence of added cellobiose. […]"}}}
{"smiles": "O=C[C@H](O)[C@@H](O)[C@H](O[C@@H]1O[C@H](CO)[C@@H](O)[C@H](O)[C@H]1O)[C@H](O)CO", "note": "[cellobiose, Cellobiose]", "values": [{"measurement": "Ki", "setting": "AtCel7A; 35°C", "value": 95, "unit": "µM"}, {"measurement": "Ki", "setting": "AtCel7A; 50°C", "value": 233, "unit": "µM"}, {"measurement": "Ki", "setting": "TrCel5A", "value": 424, "unit": "µM"}, {"measurement": "IC50 (approximate, by visual inspection of Figure 9B)", "setting": "TrCel12A; TrCel12A (50 nM), not accountable by Equation 5", "value": "few hundred millimolar range"}, {"measurement": "Effect of cellobiose on activity", "setting": "TrCel12A; TrCel12A, 75 mM cellobiose", "value": "apparent activation"}]}
